Experimental data from US11944623B2, “Modulators of Kv3 channels to treat pain” (Autifony Therapeutics Limited, priority 2015, dated 2024).

Legend:
[1] = target: T1, human cloned Kv3.4 channels (Homo sapiens, UniProt Q03721); assay: Kv3.4 Assay 1 (QPatch HT, HEK293); type: cell-based; conditions: 10 µM concentration (N=2)
T1 construct: expressed in transfected cells
T1 sequence (Q03721 1-635): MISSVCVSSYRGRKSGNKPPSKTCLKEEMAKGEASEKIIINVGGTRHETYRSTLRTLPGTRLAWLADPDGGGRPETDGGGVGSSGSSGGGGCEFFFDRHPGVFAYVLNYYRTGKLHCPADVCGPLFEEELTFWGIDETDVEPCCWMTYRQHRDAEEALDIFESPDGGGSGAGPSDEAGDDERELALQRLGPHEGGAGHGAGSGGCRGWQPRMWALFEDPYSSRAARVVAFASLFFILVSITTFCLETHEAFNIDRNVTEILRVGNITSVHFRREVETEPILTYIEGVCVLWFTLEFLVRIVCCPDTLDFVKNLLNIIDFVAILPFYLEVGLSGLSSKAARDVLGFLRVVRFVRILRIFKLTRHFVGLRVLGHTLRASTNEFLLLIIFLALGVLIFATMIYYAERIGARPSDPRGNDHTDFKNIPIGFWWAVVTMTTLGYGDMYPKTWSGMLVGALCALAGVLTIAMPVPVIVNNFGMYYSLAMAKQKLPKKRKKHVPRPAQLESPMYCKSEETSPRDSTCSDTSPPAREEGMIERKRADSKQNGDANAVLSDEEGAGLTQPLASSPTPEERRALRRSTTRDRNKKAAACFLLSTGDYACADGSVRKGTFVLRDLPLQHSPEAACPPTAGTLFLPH
Procedure: The effect of compounds on human cloned Kv3.4 channels expressed stably in a HEK293 call line was evaluated at room temperature using the QPatch HT® (Sophion Bioscience A/S, Denmark), an automatic parallel patch clamp system. Compounds were evaluated at 10 μM in three cells. The duration of exposure to each test article concentration was 5 minutes.
In preparation for a recording session, intracellular solution was loaded into the intracellular compartments of the QPlate and cell suspension was pipetted into the extracellular compartments. After establishment of a whole-cell configuration, membrane currents were recorded using up to 48 parallel patch clamp amplifiers in the QPatch HT® system. The current records were sampled at 2000 Hz and low-pass Bessel filtered at 400 Hz.
Valid whole-cell recordings met the following criteria: • 1. Seal resistance (Rseal) ≥200 MΩ. • 2. Leak current 25% channel current.

[2] = target: T2, Human Kv7.2/7.3 heteromeric channels (Homo sapiens, UniProt O43525+O43526); assay: Kv7.2/7.3 patch clamp assay; type: cell-based; conditions: 10 µM concentration (N=3)
T2 construct: expressed in transfected cells
Procedure: Human Kv7.2/7.3 heteromeric channels were stably expressed in a HEK293 cell line. Cells were plated onto 13 mm plastic dishes and incubated for 1-3 days in a 5% CO2 incubator for conventional whole-cell patch clamp experiments. Electrophysiological recordings were made using an automated patch clamp platform (QPatch, Sophion Biosciences). Internal (pipette) solution contained (in mM): K-Aspartate (130), KCl (15), MgCl2 (5.5), Na2ATP (5), K2PCr (5), EGTA (20), HEPES (10), pH 7.25 with KOH, was used to study Kv7.2/7.3 currents. Cells were superfused at room temperature with a standard physiological solution containing (mM): NaCl (140), KCl (4), CaCl2 (2), MgCl2 (1), glucose (10), HEPES (10), pH 7.35 with NaOH.
Patch pipettes were pulled from borosilicate glass and had tip resistances of 2-4 MW when filled with the above solution. Capacitative transients were compensated electronically from the recordings. However, the voltage drop across the series resistance and the liquid junction potential were not compensated. The series resistance was generally less than 10 MG (n=5 cells), with a mean cell capacity of 25±5 pF.
In some cases, manual patch clamp was carried out using an Axon 200B amplifier (Axon Instruments). The software program pClamp (version 10) from Axon Instruments was used to stimulate and record electrical activity. […]

Compound | potentiation of the observed Kv3.4 current [1] | effect on Kv7.2/7.3-mediated currents [2]
CC[C@@]1(C)NC(=O)N(c2cnc(Oc3ccc(C)c(OC(F)(F)F)c3)nc2)C1=O [Compound 2, (5R)-5-ethyl-5-methyl-3-[2-({4-methyl-3-[(trifluoromethyl)oxy]phenyl}oxy)-5-pyrimidinyl]-2,4-imidazolidinedione] | did not potentiate | Neither compound was found to have a significant effect
Cc1ccc(Oc2ncc(N3C(=O)NC(C)(C)C3=O)cn2)c2c1OCC21CC1 [Compound 1, 5,5-dimethyl-3-[2-(7-methylspiro[2H-benzofuran-3,1′-cyclopropane]-4-yl)oxypyrimidin-5-yl]imidazolidine-2,4-dione] | – | Neither compound was found to have a significant effect
